Assay results published in patent US10175256B2, “Compositions and methods utilizing lysophosphatidylcholine scaffolds” (National University Of Singapore, priority 2013, dated 2019).
“And” between values parts separate entries of the source, which are not always exact repeats. Identical values can stand only once.

Legend:
[1] = target: T1, Mfsd2a (Mus musculus, UniProt Q9DA75); test: Competition transport assay with LPC-[3H]palmitate as ligand; type: cell-based; design: expressed in transfected cells; host or cells: HEK293; conditions: 25 μM LPC-[3H]palmitate; for competition of foscholines with LPC-[3H]palmitate: 250 μM competitor, 15 mins; for competition for transport/uptake of LPC-[3H]palmitate: 10-fold molar excess (250 μM) competitor, 30 mins (PAF 15 mins)
T1 sequence (Q9DA75 1-534): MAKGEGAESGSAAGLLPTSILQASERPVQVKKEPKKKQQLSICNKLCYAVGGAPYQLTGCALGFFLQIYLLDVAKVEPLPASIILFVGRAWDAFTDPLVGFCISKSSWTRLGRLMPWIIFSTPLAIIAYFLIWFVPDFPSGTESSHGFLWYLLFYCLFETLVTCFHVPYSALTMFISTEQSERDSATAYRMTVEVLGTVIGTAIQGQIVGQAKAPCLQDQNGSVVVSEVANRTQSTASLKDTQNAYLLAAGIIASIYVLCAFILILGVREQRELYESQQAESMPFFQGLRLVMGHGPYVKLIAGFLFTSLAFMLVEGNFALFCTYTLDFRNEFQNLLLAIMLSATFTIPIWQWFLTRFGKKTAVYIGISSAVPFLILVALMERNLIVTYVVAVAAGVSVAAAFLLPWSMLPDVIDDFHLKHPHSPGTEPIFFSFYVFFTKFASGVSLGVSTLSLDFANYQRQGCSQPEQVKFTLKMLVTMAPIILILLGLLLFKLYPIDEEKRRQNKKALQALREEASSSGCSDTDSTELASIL
Description: Briefly, 24 h post transfection of HEK293 cells with pcDNA3.1Mfsd2a (WT), pcDNA3.1Mfsd2aD92A (D92A), pcDNA3.1Mfsd2aD96A, or pcDNA3.1 (mock) plasmids were washed once with serum-free DMEM medium before addition of a mixture of 25 μM radiolabeled LPC-palmitate and 250 μM cold competitors, which were dissolved in 12% BSA. Total BSA concentration was kept constant in samples with or without cold competitors. Assays were performed at 37° C. for 30 mins. Competition assays with other LPC analogs such as foscholine detergents, and PAF were performed under the same conditions except for 15 mins. The reduced reaction time was necessary in order to limit potential negative effects of detergents and bioactive lipids on cell survival. All assays were performed in 12 well-plates with triplicates and at 37° C.
We next sought to determine ligand specificity and the chemical features of the LPC ligands that are required for transport by Mfsd2a.

[2] = target: T2, mouse Mfsd2a (Mus musculus, UniProt Q9DA75); test: Cell-based free fatty acid transport/uptake in Mfsd2a expressing HEK293 cells (mass spectrometry, TLC; Table 1)
T2 construct: expressed in transfected cells; host or cells: HEK293
T2 sequence (Q9DA75 1-534): T1 sequence (Q9DA75 1-534)
In short: (§1)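 HEK293 cells expressing mouse Mfsd2a, or mock controls, were incubated overnight with 100 μM BSA-complexed fatty acids. Lipids were extracted in hexane:isopropanol (3:2) and phospholipid species quantified by HPLC-MS/MS against spiked internal standards. For TLC, cells received 100 μM [^14C]-oleate overnight, and phospholipids and neutral lipids were resolved.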

[3] = test system: mouse Mfsd2a; test: as above
In short: as §1

[4] = Mfsd2a HEK293 cells, 100 uM fatty acid/BSA overnight
[5] = mock HEK293 cells, 100 uM fatty acid/BSA overnight

Compound: CCCCCCCCOP(=O)([O-])OCC[N+](C)(C)C [Fos-8]
- competition of foscholines with LPC-[3H]palmitate [1]: did not compete

Compound: CCCCCCCCCCOP(=O)([O-])OCC[N+](C)(C)C [Fos-10]
- competition of foscholines with LPC-[3H]palmitate [1]: did not compete

Compound: CCCCCCCCCCCCOP(=O)([O-])OCC[N+](C)(C)C [Fos-12]
- competition of foscholines with LPC-[3H]palmitate [1]: did not compete

Compound: CCCCCCCCCCCCC/C=C/[C@@H](O)[C@@H](N)COP(=O)([O-])OCC[N+](C)(C)C [Lysosphingomyelin]
- competition for transport/uptake of LPC-[3H]palmitate [1]: competed
- competition for transport/uptake of LPC-[3H]palmitate ([1]; listed as lysosphingomyelin): strong competition

Compound: CCCCCCCCCCCCCCCCOP(=O)([O-])OCC[N+](C)(C)C [Miltefosine]
- competition of foscholines with LPC-[3H]palmitate [1]: strong competition

Compound: CCCCCCCC/C=C\CCCCCCCC(=O)O [Oleic]
- % DHA in PS [2, 4]: 0.1056% and 0.1088% and 0.1312% and 0.1092%
- PS(sum) in total phospholipid [2, 4]: 2.787 mol percent and 2.992 mol percent and 3.252 mol percent and 2.587 mol percent
- PS:36:1 in total phospholipid [2, 4]: 1.289 mol percent and 1.358 mol percent and 1.479 mol percent and 1.19 mol percent
- PS:36:2 in total phospholipid [2, 4]: 0.4671 mol percent and 0.4839 mol percent and 0.5719 mol percent and 0.4252 mol percent
- PS:36:3 in total phospholipid [2, 4]: 0.0188 mol percent and 0.02264 mol percent and 0.01888 mol percent and 0.01251 mol percent
- PS:36:4 in total phospholipid [2, 4]: 0.003419 mol percent and 0.003995 mol percent and 0.004969 mol percent and 0.003335 mol percent
- PS:38:2 in total phospholipid [2, 4]: 0.2325 mol percent and 0.2459 mol percent and 0.2529 mol percent and 0.1984 mol percent
- PS:38:3 in total phospholipid [2, 4]: 0.1257 mol percent and 0.1554 mol percent and 0.1491 mol percent and 0.1276 mol percent
- PS:38:4 in total phospholipid [2, 4]: 0.06539 mol percent and 0.08301 mol percent and 0.08249 mol percent and 0.07253 mol percent
- PS:38:5 in total phospholipid [2, 4]: 0.008121 mol percent and 0.01199 mol percent and 0.01093 mol percent and 0.01084 mol percent
- PS:40:4 in total phospholipid [2, 4]: 0.09916 mol percent and 0.08523 mol percent and 0.1014 mol percent and 0.07753 mol percent
- PS:40:5 in total phospholipid [2, 4]: 0.05001 mol percent and 0.05638 mol percent and 0.05863 mol percent and 0.05419 mol percent
- PS:40:6 in total phospholipid [2, 4]: 0.09445 mol percent and 0.09677 mol percent and 0.1222 mol percent and 0.0942 mol percent
- PS:40:7 in total phospholipid [2, 4]: 0.01111 mol percent and 0.01199 mol percent and 0.008944 mol percent and 0.01501 mol percent
- % DHA in PS [3, 5]: 0.107% and 0.1103% and 0.1249%
- PS(sum) in total phospholipid [3, 5]: 2.685 mol percent and 3.082 mol percent and 2.902 mol percent
- PS:36:1 in total phospholipid [3, 5]: 1.21 mol percent and 1.398 mol percent and 1.339 mol percent
- PS:36:2 in total phospholipid [3, 5]: 0.4461 mol percent and 0.5356 mol percent and 0.4546 mol percent
- PS:36:3 in total phospholipid [3, 5]: 0.0148 mol percent and 0.01325 mol percent and 0.01917 mol percent
- PS:38:2 in total phospholipid [3, 5]: 0.2083 mol percent and 0.235 mol percent and 0.2311 mol percent
- PS:38:3 in total phospholipid [3, 5]: 0.1326 mol percent and 0.1657 mol percent and 0.1369 mol percent
- PS:38:4 in total phospholipid [3, 5]: 0.07625 mol percent and 0.06869 mol percent and 0.07723 mol percent
- PS:38:5 in total phospholipid [3, 5]: 0.01081 mol percent and 0.01386 mol percent and 0.0115 mol percent
- PS:40:4 in total phospholipid [3, 5]: 0.09048 mol percent and 0.1018 mol percent and 0.09531 mol percent
- PS:40:5 in total phospholipid [3, 5]: 0.06829 mol percent and 0.04459 mol percent and 0.0619 mol percent
- PS:40:6 in total phospholipid [3, 5]: 0.09845 mol percent and 0.1006 mol percent and 0.1134 mol percent
- PS:40:7 in total phospholipid [3, 5]: 0.008536 mol percent and 0.00964 mol percent and 0.0115 mol percent

Compound: C[N+](C)(C)CCOP(=O)([O-])OC[C@H](O)CO [glycerophosphatidylcholine, alpha-glycerylphosphocholine]
- competition for transport/uptake of LPC-[3H]palmitate [1]: not a competitor

Compound: CCCCCCCCCCCCCCCCOC[C@@H](O)COP(=O)([O-])OCC[N+](C)(C)C [lysoplatelet activating factor]
- competition for transport/uptake of LPC-[3H]palmitate [1]: strong competitors

Compound: CCCCCCCCCCCCC/C=C/[C@@H](O)[C@@H](N)COP(=O)(O)O [sphingosine-1-phosphate]
- competition for transport/uptake of LPC-[3H]palmitate [1]: not a competitor
- competition for transport/uptake of LPC-[3H]palmitate ([1]; listed as sphingosine 1-phosphate): did not compete

Compound: PE38:5
- Amount of each lipid species, mol percent in total phospholipid analysed ([2]; Mfsd2a expressing HEK293 cells incubated with 100 uM Arachidonic fatty acid/BSA complex overnight, MS, replicate columns): 1.517 mol percent and 1.746 mol percent and 1.538 mol percent and 1.292 mol percent
- Amount of each lipid species, mol percent in total phospholipid analysed ([2]; Mfsd2a expressing HEK293 cells incubated with 100 uM Eicosapentaenoic fatty acid/BSA complex overnight, MS, replicate columns): 0.8525 mol percent and 0.7862 mol percent and 1.249 mol percent and 0.8033 mol percent
- Amount of lipid species, mol percent in total phospholipid analysed ([2]; Mfsd2a expressing HEK293 cells, 100 uM Alpha-linolenic fatty acid/BSA complex overnight, replicate columns): 2.013 mol percent and 1.902 mol percent and 1.704 mol percent and 1.689 mol percent
- Amount of each lipid species normalized to internal standard, mol percent in total phospholipid analysed ([2]; Mfsd2a expressing HEK293 cells, 100 uM Docosahexaenoic acid/BSA complex overnight, MS, replicate columns): 0.6996 mol percent and 0.7565 mol percent and 0.8996 mol percent and 0.9147 mol percent
- Amount of lipid species, mol percent in total phospholipid analysed ([2]; Mfsd2a expressing HEK293 cells, 100 uM Linoleic fatty acid/BSA complex overnight, MS, replicate columns): 0.714 mol percent and 1.007 mol percent and 0.7471 mol percent and 0.7035 mol percent
- Amount of lipid species, mol percent in total phospholipid analysed ([2]; Mfsd2a expressing HEK293 cells, 100 uM Oleic fatty acid/BSA complex overnight, MS, replicate columns): 0.6441 mol percent and 0.6477 mol percent and 0.57 mol percent and 0.5862 mol percent
- Amount of each lipid species, mol percent in total phospholipid analysed ([3]; mock HEK293 cells incubated with 100 uM Arachidonic fatty acid/BSA complex overnight, MS, replicate columns): 1.648 mol percent and 1.509 mol percent and 1.4 mol percent
- Amount of each lipid species, mol percent in total phospholipid analysed ([3]; mock HEK293 cells incubated with 100 uM Eicosapentaenoic fatty acid/BSA complex overnight, MS, replicate columns): 1.214 mol percent and 0.8982 mol percent and 0.9456 mol percent
- Amount of each lipid species normalized to internal standard, mol percent in total phospholipid analysed ([3]; mock HEK293 cells, 100 uM Docosahexaenoic acid/BSA complex overnight, MS, replicate columns): 0.6844 mol percent and 0.8632 mol percent and 0.5129 mol percent
- Amount of lipid species, mol percent in total phospholipid analysed ([3]; mock HEK293 cells, 100 uM Linoleic fatty acid/BSA complex overnight, MS, replicate columns): 0.9188 mol percent and 0.8836 mol percent and 0.7914 mol percent
- Amount of lipid species, mol percent in total phospholipid analysed ([3]; mock HEK293 cells, 100 uM Oleic fatty acid/BSA complex overnight, MS, replicate columns): 0.809 mol percent and 0.6822 mol percent and 0.456 mol percent

Compound: lysophosphatidic acid [LPA]
- competition for transport/uptake of LPC-[3H]palmitate [1]: non-competitive

Compound: lysophosphatidylethanolamine [LPE]
- competition for transport/uptake of LPC-[3H]palmitate [1]: weak competition

Compound: lysophosphatidylserine [LPS]
- competition for transport/uptake of LPC-[3H]palmitate [1]: weak competition

Compound: platelet activating factor
- competition for transport/uptake of LPC-[3H]palmitate [1]: strong competitors
- competition for transport/uptake of LPC-[3H]palmitate ([1]; listed as PAF): strong competition
